Experimental data from patent US20120225062A1 (priority 2011, published 2012).
pEC50, pIC50: −log10 of the molar value.

What was measured:
Pim 1 = Pim 1 (Homo sapiens, UniProt P11309); test: Pim 1 AlphaScreen assay (high ATP)
Description: The activity of Pim 1, Pim 2, & Pim 3 is measured using a homogeneous bead based system quantifying the amount of phosphorylated peptide substrate resulting from kinase-catalyzed phosphoryl transfer to a peptide substrate. Compounds to be tested are dissolved in 100% DMSO and directly distributed to a white 384-well plate at 0.25 μl per well. […] This is followed by the addition of 5 μl/well of Pim 1, Pim 2 or Pim 3 kinase in assay buffer (concentrations described below). Final assay concentrations (described below) are in 2.5% DMSO. The reactions are performed for ˜2 hours, then stopped by the addition of 10 μl of 0.75 μg/ml anti-phospho Ser/Thr antibody (Cell Signaling), 10 μg/ml Protein A AlphaScreen beads (Perkin Elmer), and 10 μg/ml streptavidin coated AlphaScreen beads in stop/detection buffer (50 mM EDTA, 95 mM Tris, pH=7.5, 0.01% Tween-20). The stopped reactions are incubated overnight in the dark. The phosphorylated peptide is detected via an oxygen anion initiated chemiluminescence/fluorescence cascade using the Envision plate reader (Perkin Elmer).

Pim 2 = Pim 2 (Homo sapiens, UniProt Q9P1W9); test: Pim 2 AlphaScreen assay (high ATP)
[1] = tested on: KMS11 (human myeloma cell line); test: Cell Proliferation Assay (CellTiter-Glo, 3 days); assay type: cell-based; conditions: KMS-11, 72 h, KMS11-luc cells
Outline: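 KMS11 myeloma cells, 2000 per well in IMDM with 10% FBS, exposed to compound for 3 days at 37° C. Viability read by CellTiter-Glo luminescence; EC50 derived.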

Pim 3 = Pim 3 (Homo sapiens, UniProt Q86V86); test: Pim 3 AlphaScreen assay (high ATP)

Pim 2, sequence (Q9P1W9 whole entry): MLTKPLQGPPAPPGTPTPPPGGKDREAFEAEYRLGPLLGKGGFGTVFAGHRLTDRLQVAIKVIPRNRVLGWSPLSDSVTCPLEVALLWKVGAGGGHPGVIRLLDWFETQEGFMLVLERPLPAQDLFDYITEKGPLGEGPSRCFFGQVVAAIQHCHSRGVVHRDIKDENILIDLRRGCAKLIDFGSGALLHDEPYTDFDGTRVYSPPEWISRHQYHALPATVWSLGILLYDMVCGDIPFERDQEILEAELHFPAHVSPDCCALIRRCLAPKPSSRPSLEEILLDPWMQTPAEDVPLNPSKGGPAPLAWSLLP
Pim 1, sequence (P11309 whole entry): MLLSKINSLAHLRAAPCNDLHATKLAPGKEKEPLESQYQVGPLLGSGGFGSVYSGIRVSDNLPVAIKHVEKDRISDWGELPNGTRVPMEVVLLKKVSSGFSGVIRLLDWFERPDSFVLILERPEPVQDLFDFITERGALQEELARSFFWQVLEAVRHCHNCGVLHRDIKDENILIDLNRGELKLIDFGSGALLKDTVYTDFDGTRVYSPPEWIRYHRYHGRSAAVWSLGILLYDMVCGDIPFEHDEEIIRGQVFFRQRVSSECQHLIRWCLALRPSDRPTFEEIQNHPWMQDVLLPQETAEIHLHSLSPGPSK

COC(C)(C)COc1cc(F)c(-c2nc(C(=O)Nc3cnccc3[C@H]3C[C@@H](N)[C@H](O)[C@@H](C)C3)ccc2F)c(F)c1 [Example 45, N-(4-((1R,3R,4R,5S)-3-amino-4-hydroxy-5-methylcyclohexyl)pyridin-3-yl)-6-(2,6-difluoro-4-(2-methoxy-2-methylpropoxy)phenyl)-5-fluoropicolinamide]
pIC50 (Pim 1): 10.52 | pIC50 (Pim 2): 8.50 | pEC50 [1]: 7.31 | pIC50 (Pim 3): 8.95

COC(C)(C)COc1cc(F)c(-c2nc(C(=O)Nc3cnccc3[C@@H]3C[C@H](C)C[C@H](N)C3)ccc2F)c(F)c1 [Example 46, N-(4-((1R,3S,5S)-3-amino-5-methylcyclohexyl)pyridin-3-yl)-6-(2,6-difluoro-4-(2-methoxy-2-methylpropoxy)phenyl)-5-fluoropicolinamide]
pIC50 (Pim 1): 10.70 | pIC50 (Pim 2): 8.56 | pEC50 [1]: 7.08 | pIC50 (Pim 3): 9.07

C[C@H]1C[C@@H](c2ccncc2NC(=O)c2ccc(F)c(-c3c(F)cc(OC4COC4)cc3F)n2)C[C@@H](N)[C@@H]1O [Example 47, N-(4-((1R,3R,4R,5S)-3-amino-4-hydroxy-5-methylcyclohexyl)pyridin-3-yl)-6-(2,6-difluoro-4-(oxetan-3-yloxy)phenyl)-5-fluoropicolinamide]
pIC50 (Pim 1): 10.40 | pIC50 (Pim 2): 8.20 | pEC50 [1]: 7.01 | pIC50 (Pim 3): 8.88

C[C@@H]1C[C@H](N)C[C@H](c2ccncc2NC(=O)c2ccc(F)c(-c3c(F)cc(OC4COC4)cc3F)n2)C1 [Example 48, N-(4-((1R,3S,5S)-3-amino-5-methylcyclohexyl)pyridin-3-yl)-6-(2,6-difluoro-4-(oxetan-3-yloxy)phenyl)-5-fluoropicolinamide]
pIC50 (Pim 1): 10.10 | pIC50 (Pim 2): 8.38 | pEC50 [1]: 7.08 | pIC50 (Pim 3): 9.62

COC(C)(C)c1cc(F)c(-c2nc(C(=O)Nc3cnccc3[C@@H]3C[C@H](C)C[C@H](N)C3)ccc2F)c(F)c1 [Example 49, N-(4-((1R,3S,5S)-3-amino-5-methylcyclohexyl)pyridin-3-yl)-6-(2,6-difluoro-4-(2-methoxypropan-2-yl)phenyl)-5-fluoropicolinamide]
pIC50 (Pim 1): 10.52 | pIC50 (Pim 2): 8.57 | pEC50 [1]: 7.28 | pIC50 (Pim 3): 8.73

C[C@@H]1C[C@H](N)C[C@H](c2ccncc2NC(=O)c2ccc(F)c(-c3c(F)cc(OCC(C)(C)O)cc3F)n2)C1 [Example 50, N-(4-((1R,3S,5S)-3-amino-5-methylcyclohexyl)pyridin-3-yl)-6-(2,6-difluoro-4-(2-hydroxy-2-methylpropoxy)phenyl)-5-fluoropicolinamide]
pIC50 (Pim 1): 10.70 | pIC50 (Pim 2): 8.48 | pEC50 [1]: 7.89 | pIC50 (Pim 3): 9.14

C[C@H]1C[C@@H](c2ccncc2NC(=O)c2ccc(F)c(-c3c(F)cc(OCC(C)(C)O)cc3F)n2)C[C@@H](N)[C@@H]1O [Example 51, N-(4-((1R,3R,4R,5S)-3-amino-4-hydroxy-5-methylcyclohexyl)pyridin-3-yl)-6-(2,6-difluoro-4-(2-hydroxy-2-methylpropoxy)phenyl)-5-fluoropicolinamide]
pIC50 (Pim 1): 10.52 | pIC50 (Pim 2): 8.36 | pEC50 [1]: 7.52 | pIC50 (Pim 3): 8.99

COC1(c2cc(F)c(-c3nc(C(=O)Nc4cnccc4[C@H]4C[C@@H](N)[C@H](O)[C@@H](C)C4)ccc3F)c(F)c2)COC1 [Example 52, N-(4-((1R,3R,4R,5S)-3-amino-4-hydroxy-5-methylcyclohexyl)pyridin-3-yl)-6-(2,6-difluoro-4-(3-methoxyoxetan-3-yl)phenyl)-5-fluoropicolinamide]
pIC50 (Pim 1): 10.30 | pIC50 (Pim 2): 8.32 | pEC50 [1]: 7.26 | pIC50 (Pim 3): 8.54

COC1(c2cc(F)c(-c3nc(C(=O)Nc4cnccc4[C@@H]4C[C@H](C)C[C@H](N)C4)ccc3F)c(F)c2)COC1 [Example 53, N-(4-((1R,3S,5S)-3-amino-5-methylcyclohexyl)pyridin-3-yl)-6-(2,6-difluoro-4-(3-methoxyoxetan-3-yl)phenyl)-5-fluoropicolinamide]
pIC50 (Pim 1): 10.30 | pIC50 (Pim 2): 8.59 | pEC50 [1]: 7.49 | pIC50 (Pim 3): 8.39

C[C@H]1C[C@@H](c2ccncc2NC(=O)c2ccc(F)c(-c3c(F)cc(OC4CCOCC4)cc3F)n2)C[C@@H](N)[C@@H]1O [Example 59]
pIC50 (Pim 1): 10.70 | pIC50 (Pim 2): 8.56 | pEC50 [1]: 7.55 | pIC50 (Pim 3): 9.35

C[C@@H]1C[C@H](N)C[C@H](c2ccncc2NC(=O)c2ccc(F)c(-c3c(F)cc(C4(O)CCC4)cc3F)n2)C1 [Example 61, N-(4-((1R,3S,5S)-3-amino-5-methylcyclohexyl)pyridin-3-yl)-6-(2,6-difluoro-4-(1-hydroxycyclobutyl)phenyl)-5-fluoropicolinamide]
pIC50 (Pim 1): 10.70 | pIC50 (Pim 2): 9.00 | pEC50 [1]: 7.33 | pIC50 (Pim 3): 9.28

CC(C)Oc1cc(F)c(-c2nc(C(=O)Nc3cnccc3[C@H]3C[C@@H](N)[C@H](O)[C@@H](C)C3)ccc2F)c(F)c1 [Example 62, N-(4-((1R,3R,4R,5S)-3-amino-4-hydroxy-5-methylcyclohexyl)pyridin-3-yl)-6-(2,6-difluoro-4-isopropoxyphenyl)-5-fluoropicolinamide]
pIC50 (Pim 1): 11.00 | pIC50 (Pim 2): 8.99 | pEC50 [1]: 7.28 | pIC50 (Pim 3): 9.46

C[C@@H]1C[C@H](N)C[C@H](c2ccncc2NC(=O)c2ccc(F)c(-c3c(F)cc(OC4CCOCC4)cc3F)n2)C1 [Example 63, N-(4-((1R,3S,5S)-3-amino-5-methylcyclohexyl)pyridin-3-yl)-6-(2,6-difluoro-4-((tetrahydro-2H-pyran-4-yl)oxy)phenyl)-5-fluoropicolinamide]
pIC50 (Pim 1): 11.00 | pIC50 (Pim 2): 8.69 | pEC50 [1]: 7.12 | pIC50 (Pim 3): 9.49

C[C@@H]1C[C@H](N)C[C@H](c2ccncc2NC(=O)c2ccc(F)c(-c3c(F)cc(OCC4CC4)cc3F)n2)C1 [Example 64, N-(4-((1R,3S,5S)-3-amino-5-methylcyclohexyl)pyridin-3-yl)-6-(4-(cyclopropylmethoxy)-2,6-difluorophenyl)-5-fluoropicolinamide]
pIC50 (Pim 1): 11.00 | pIC50 (Pim 2): 8.71 | pEC50 [1]: 7.43 | pIC50 (Pim 3): 9.29

C[C@@H]1C[C@H](N)C[C@H](c2ccncc2NC(=O)c2ccc(F)c(-c3c(F)cc(OC(F)F)cc3F)n2)C1 [Example 65, N-(4-((1R,3S,5S)-3-amino-5-methylcyclohexyl)pyridin-3-yl)-6-(4-(difluoromethoxy)-2,6-difluorophenyl)-5-fluoropicolinamide]
pIC50 (Pim 1): 11.00 | pIC50 (Pim 2): 8.42 | pEC50 [1]: 7.08 | pIC50 (Pim 3): 9.00

COCCc1cc(F)c(-c2nc(C(=O)Nc3cnccc3[C@@H]3C[C@H](C)C[C@H](N)C3)ccc2F)c(F)c1 [Example 67, N-(4-((1R,3S,5S)-3-amino-5-methylcyclohexyl)pyridin-3-yl)-6-(2,6-difluoro-4-(2-methoxyethyl)phenyl)-5-fiuoropicolinamide]
pIC50 (Pim 1): 10.70 | pIC50 (Pim 2): 8.77 | pEC50 [1]: 7.64 | pIC50 (Pim 3): 9.03

C[C@@H]1C[C@H](N)C[C@H](c2ccncc2NC(=O)c2ccc(F)c(-c3c(F)cc(C4COC4)cc3F)n2)C1 [Example 68, N-(4-((1R,3S,5S)-3-amino-5-methylcyclohexyl)pyridin-3-yl)-6-(2,6-difluoro-4-(oxetan-3-yl)phenyl)-5-fluoropicolinamide]
pIC50 (Pim 1): 11.00 | pIC50 (Pim 2): 8.80 | pEC50 [1]: 7.60 | pIC50 (Pim 3): 8.95

CC(C)Oc1cc(F)c(-c2nc(C(=O)Nc3cnccc3[C@@H]3C[C@H](C)C[C@H](N)C3)ccc2F)c(F)c1 [Example 75, N-(4-((1R,3S,5S)-3-amino-5-methylcyclohexyl)pyridin-3-yl)-6-(2,6-difluoro-4-isopropoxyphenyl)-5-fluoropicolinamide]
pIC50 (Pim 1): 10.70 | pIC50 (Pim 2): 8.81 | pEC50 [1]: 7.36 | pIC50 (Pim 3): 9.21

C[C@H]1CN(c2ccncc2NC(=O)c2ccc(F)c(-c3c(F)cc(C4(O)CCC4)cc3F)n2)C[C@@H](N)[C@@H]1O [Example 76, N-(4-((3R,4R,5S)-3-amino-4-hydroxy-5-methylpiperidin-1-yl)pyridin-3-yl)-6-(2,6-difluoro-4-(1-hydroxycyclobutyl)phenyl)-5-fluoropicolinamide]
pIC50 (Pim 1): 11.00 | pIC50 (Pim 2): 9.15 | pEC50 [1]: 8.05 | pIC50 (Pim 3): 9.66

C[C@@H]1C[C@H](N)C[C@H](c2ccncc2NC(=O)c2ccc(F)c(-c3c(F)cc(O[C@@H]4CCCOC4)cc3F)n2)C1 [Example 77, N-(4-((1R,3S,5S)-3-amino-5-methylcyclohexyl)pyridin-3-yl)-6-(2,6-difluoro-4-((R)-tetrahydro-2H-pyran-3-yloxy)phenyl)-5-fluoropicolinamide]
pIC50 (Pim 1): 10.70 | pIC50 (Pim 2): 8.74 | pEC50 [1]: 7.32 | pIC50 (Pim 3): 8.95

C[C@H]1C[C@@H](c2ccncc2NC(=O)c2ccc(F)c(-c3c(F)cc(O[C@@H]4CCCOC4)cc3F)n2)C[C@@H](N)[C@@H]1O [Example 78, N-(4-((1R,3R,4R,5S)-3-amino-4-hydroxy-5-methylcyclohexyl)pyridin-3-yl)-6-(2,6-difluoro-4-((R)-tetrahydro-2H-pyran-3-yloxy)phenyl)-5-fluoropicolinamide]
pIC50 (Pim 1): 10.70 | pIC50 (Pim 2): 8.91 | pEC50 [1]: 7.66 | pIC50 (Pim 3): 9.25

C[C@@H]1C[C@H](N)C[C@H](c2ccncc2NC(=O)c2ccc(F)c(-c3c(F)cc(O[C@H]4CCCOC4)cc3F)n2)C1 [Example 79, N-(4-((1R,3S,5S)-3-amino-5-methylcyclohexyl)pyridin-3-yl)-6-(2,6-difluoro-4-((S)-tetrahydro-2H-pyran-3-yloxy)phenyl)-5-fluoropicolinamide]
pIC50 (Pim 1): 11.00 | pIC50 (Pim 2): 8.97 | pEC50 [1]: 7.92 | pIC50 (Pim 3): 9.62
